Experimental data from patent US12479838B2, “D3 receptor agonist compounds; methods of preparation; intermediates thereof; and methods of use thereof” (THE UNITED STATES OF AMERICA, AS REPRESENTED BY THE …, priority 2019, dated 2025).
Where two headings read alike, the source gives them in different places.

Legend:
[1] = target: human D3R (Homo sapiens (Human), UniProt P35462); test: Radioligand competition binding vs. [3H]-(R)-(+)-7-OH-DPAT, hD3R; details: vs. [3H]-(R)-(+)-7-OH-DPAT; for D4R/D3R / D2R/D3R: ratio of Ki; for D2R/D3R: D3R selectivity over D2R
[2] = target: human D2LR (Homo sapiens (Human), UniProt P14416); test: Radioligand competition binding vs. [3H]-(R)-(+)-7-OH-DPAT, hD2R; details: vs. [3H]-(R)-(+)-7-OH-DPAT
[3] = target: hD1R (Homo sapiens (Human), UniProt P21728); test: Off-target competition binding vs. [3H]-SCH23390, hD1R; details: read-out: hD1R Ki ± SEM
[4] = target: hμOR (Homo sapiens (Human), UniProt P35372); test: Off-target competition binding vs. [3H]-DAMGO, hμOR; details: read-out: hμOR Ki ± SEM
[5] = target: human D4.4 (Homo sapiens (Human), UniProt P21917); test: Radioligand competition binding vs. [3H]-(R)-(+)-7-OH-DPAT, hD4R; details: HEK293 cells stably expressing hD4R, read-out: D4R Ki ± SEM
[6] = target: hD3R (Homo sapiens (Human), UniProt P35462); test: Competition binding vs. antagonist [3H]-N-methylspiperone, D3R; details: read-out: hD3R Ki ± SEM; vs. antagonist [3H]-N-methylspiperone
[7] = target: hD2LR (Homo sapiens (Human), UniProt P14416); test: Competition binding vs. antagonist [3H]-N-methylspiperone, D2R; details: read-out: hD2LR Ki ± SEM
[8] = HEK293, read-out: hD3R Ki ± SEM
[9] = HEK293, read-out: hD2LR Ki ± SEM
[10] = vs. [3H]-DAMGO, HEK293 membranes, >100 = <50% inhibition at 100 μM
[11] = HEK293 cells stably expressing hD3R, read-out: D3R Ki ± SEM
[12] = HEK293 cells stably expressing hD2R, read-out: D2R Ki ± SEM

hμOR, sequence (P35372 whole entry): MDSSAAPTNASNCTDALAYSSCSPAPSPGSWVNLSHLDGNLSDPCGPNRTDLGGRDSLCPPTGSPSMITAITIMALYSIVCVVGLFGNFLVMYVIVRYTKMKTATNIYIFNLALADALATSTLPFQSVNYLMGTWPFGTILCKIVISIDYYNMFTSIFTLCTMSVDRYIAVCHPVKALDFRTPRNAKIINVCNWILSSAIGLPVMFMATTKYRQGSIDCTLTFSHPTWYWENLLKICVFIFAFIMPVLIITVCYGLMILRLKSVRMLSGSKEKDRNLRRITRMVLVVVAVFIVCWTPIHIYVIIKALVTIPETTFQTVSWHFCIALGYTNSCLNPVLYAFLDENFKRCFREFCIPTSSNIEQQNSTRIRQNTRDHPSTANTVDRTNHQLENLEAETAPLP
human D4.4, sequence (P21917 whole entry): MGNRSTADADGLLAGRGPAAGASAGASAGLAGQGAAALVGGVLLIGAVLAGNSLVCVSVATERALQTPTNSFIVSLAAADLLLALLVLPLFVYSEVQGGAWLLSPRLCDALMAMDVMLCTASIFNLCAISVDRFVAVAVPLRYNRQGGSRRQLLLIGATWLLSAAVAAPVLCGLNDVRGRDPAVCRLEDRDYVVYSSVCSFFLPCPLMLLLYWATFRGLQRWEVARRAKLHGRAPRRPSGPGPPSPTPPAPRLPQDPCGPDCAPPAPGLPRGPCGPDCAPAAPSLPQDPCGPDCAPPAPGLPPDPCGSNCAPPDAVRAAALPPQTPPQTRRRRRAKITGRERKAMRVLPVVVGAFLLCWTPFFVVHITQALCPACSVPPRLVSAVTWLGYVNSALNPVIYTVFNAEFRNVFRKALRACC
hD2LR, sequence (P14416 whole entry): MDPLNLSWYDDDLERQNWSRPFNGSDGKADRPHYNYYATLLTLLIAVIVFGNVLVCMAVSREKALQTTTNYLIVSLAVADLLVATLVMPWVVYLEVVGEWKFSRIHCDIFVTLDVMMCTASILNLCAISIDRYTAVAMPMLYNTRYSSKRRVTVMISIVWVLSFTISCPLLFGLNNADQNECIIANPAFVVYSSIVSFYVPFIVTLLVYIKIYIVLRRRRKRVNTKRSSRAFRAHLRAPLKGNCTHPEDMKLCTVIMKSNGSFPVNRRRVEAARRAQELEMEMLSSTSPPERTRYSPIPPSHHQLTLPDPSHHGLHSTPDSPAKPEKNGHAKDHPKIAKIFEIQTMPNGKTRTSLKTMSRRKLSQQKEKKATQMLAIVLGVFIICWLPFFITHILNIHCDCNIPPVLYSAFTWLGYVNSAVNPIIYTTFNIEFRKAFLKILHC
human D2LR, sequence (P14416 whole entry): as above
hD1R, sequence (P21728 whole entry): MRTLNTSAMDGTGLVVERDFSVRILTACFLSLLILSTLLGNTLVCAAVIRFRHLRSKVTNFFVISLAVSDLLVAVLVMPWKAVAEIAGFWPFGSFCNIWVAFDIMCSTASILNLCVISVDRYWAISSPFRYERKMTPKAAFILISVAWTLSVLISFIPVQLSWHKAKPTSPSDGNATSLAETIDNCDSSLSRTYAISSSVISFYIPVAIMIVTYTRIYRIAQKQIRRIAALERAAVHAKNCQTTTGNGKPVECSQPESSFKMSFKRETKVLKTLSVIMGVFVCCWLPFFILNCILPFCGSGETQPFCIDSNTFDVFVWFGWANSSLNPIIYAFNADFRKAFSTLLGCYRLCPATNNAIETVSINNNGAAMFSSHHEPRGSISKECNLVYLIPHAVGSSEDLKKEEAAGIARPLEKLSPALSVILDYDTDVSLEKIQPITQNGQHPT
human D3R, sequence (P35462 whole entry): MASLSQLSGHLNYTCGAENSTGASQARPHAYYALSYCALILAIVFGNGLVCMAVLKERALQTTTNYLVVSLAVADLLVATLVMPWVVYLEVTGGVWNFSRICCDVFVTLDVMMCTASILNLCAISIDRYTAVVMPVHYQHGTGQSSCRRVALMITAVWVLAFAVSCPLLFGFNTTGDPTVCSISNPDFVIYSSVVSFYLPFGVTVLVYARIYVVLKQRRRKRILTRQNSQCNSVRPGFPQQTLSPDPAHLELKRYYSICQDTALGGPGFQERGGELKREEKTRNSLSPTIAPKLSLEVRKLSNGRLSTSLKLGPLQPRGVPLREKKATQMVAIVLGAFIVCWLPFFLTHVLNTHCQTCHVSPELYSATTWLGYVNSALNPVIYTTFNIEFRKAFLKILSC
hD3R, sequence (P35462 whole entry): as above

SMILES	D2R/D3R [1]	Ki [1, 11] [nM]	Ki [2, 12] [nM]	further results
O=C(NCCCCN1CCOC2c3cc(O)ccc3OC[C@@H]21)c1cc2ccccc2[nH]1 (stereo in doubt) [rel-cis-12]				Ki [1, 8]: 13800 nM; Ki [2, 9]: 9420 ± 3440 nM; Ki [3]: > 100000 nM; Ki [4]: 12300 ± 2880 nM
CCCN1CCO[C@@H]2c3cc(O)ccc3OC[C@H]21 [(+)-(4aR,10bR)-2, reference compound]				Ki [1, 8]: 1.67 ± 0.257 nM; Ki [2, 9]: 28 ± 5.59 nM; Ki [3]: > 100000 nM; Ki [4, 10]: 36600 ± 19800 nM
CCCN1CCO[C@@H]2c3cc(O)ccc3OC[C@H]21 [(+)-PD128,907, (4aR,10bR)-4-propyl-3,4,4a,10b-tetrahydro-2H,5H-chromeno[4,3-b][1,4]oxazin-9-ol, reference compound]	12.1	1.69 ± 0.0892	20.5 ± 2.87	D4R/D3R [1]: 15.7; Ki [5]: 26.6 ± 3.97 nM
CCCN1CCO[C@H]2c3cc(O)ccc3OC[C@@H]21 [(−)-(4aS,10bS)-2, reference compound]				loss of D3R affinity relative to (+)-(4aR,10bR)-2 [1]: > 3000 fold; Ki [1, 8]: 5620 nM; Ki [2, 9]: 7580 ± 2620 nM; Ki [3]: > 100000 nM; Ki [4, 10]: 77900 ± 41400 nM
CCCN1CC(c2ccc(N)nc2)OC[C@@H]1C (stereo partly drawn) [AB03-02, reference compound]	9.41	185 ± 20.5		D4R/D3R [1]: 1.58; Ki [2, 9]: 1740 ± 348 nM; Ki [5]: 292 ± 22.2 nM
C[C@H]1COC(c2ccc(N)nc2)CN1CCCCOc1ccc2c(c1)NC(=O)CC2 (stereo partly drawn) [AB04-35, 7-(4-((5S)-2-(6-aminopyridin-3-yl)-5-methylmorpholino)butoxy)-3,4-dihydroquinolin-2(1H)-one]	0.653	173 ± 48.2	113 ± 22.7	D4R/D3R [1]: 18.6; Ki [5]: 3220 nM
CCCN(CCC)c1ccc(C2CN(CCC)[C@@H](C)CO2)cn1 (stereo partly drawn) [AB04-52, 5-((5S)-5-methyl-4-propylmorpholin-2-yl)-N,N-dipropylpyridin-2-amine]	0.391	21100	8240	D4R/D3R [1]: >4.74; Ki [5]: > 100000 nM
C[C@H]1CO[C@@H](c2ccc(N)nc2)CN1CC(=O)N1CCC(CNC(=O)c2cc3ccccc3[nH]2)C1 (stereo partly drawn) [AB07-80, N-((1-(2-((2S,5S)-2-(6-aminopyridin-3-yl)-5-methylmorpholino)acetyl)pyrrolidin-3-yl)methyl)-1H-indole-2-carboxamide]		2010	1840	Ki [6]: 2410 ± 287 nM; Ki [7]: 7930 ± 1190 nM
C[C@H]1CO[C@@H](c2ccc(N)nc2)CN1CCn1cc(CNC(=O)c2cc3ccccc3[nH]2)nn1 [AB08-03, N-((1-(2-((2S,5S)-2-(6-aminopyridin-3-yl)-5-methylmorpholino)ethyl)-1H-1,2,3-triazol-4-yl)methyl)-1H-indole-2-carboxamide]				Ki [6]: 2780 ± 1020 nM; Ki [7]: 32300 ± 12700 nM
C[C@H]1CO[C@H](c2ccc(N)nc2)CN1C/C=C/COc1ccc2c(c1)NC(=O)CC2 [FOB01-42, 7-(((E)-4-((2R,5S)-2-(6-aminopyridin-3-yl)-5-methylmorpholino)but-2-en-1-yl)oxy)-3,4-dihydroquinolin-2(1H)-one]	0.289	73000	21100	
C[C@H]1CO[C@@H](c2ccc(N)nc2)CN1C/C=C/COc1ccc2c(c1)NC(=O)CC2 [FOB01-44, 7-(((E)-4-((2S,5S)-2-(6-aminopyridin-3-yl)-5-methylmorpholino)but-2-en-1-yl)oxy)-3,4-dihydroquinolin-2(1H)-one]	0.297	1150	341 ± 27.6	
C[C@H]1CO[C@@H](c2ccc(N)nc2)CN1CC(O)CCNC(=O)c1cc2ccccc2[nH]1 (stereo partly drawn) [FOB02-67]		423 ± 164	1010 ± 162	Ki [4, 10]: 739 ± 70.1 nM
C[C@H]1CO[C@@H](c2ccc(N)nc2)CN1C/C=C1\CCC(CNC(=O)c2cc3ccccc3[nH]2)C1 (stereo partly drawn) [FOB04-02]		7.41 ± 0.323	55.9 ± 4.78	Ki [6]: 104 ± 7.65 nM; Ki [7]: 7920 ± 772 nM
CCCN1CCO[C@@H]2c3cc(OCCCCNC(=O)c4ccc5c(c4)Cc4ccccc4-5)ccc3OC[C@H]21 [SLC01-24, N-(4-(((4aR,10bR)-4-propyl-3,4,4a,10b-tetrahydro-2H,5H-chromeno[4,3-b][1,4]oxazin-9-yl)oxy)butyl)-9H-fluorene-2-carboxamide]	8.33	806 ± 185	6710	
CCCN1CCO[C@@H]2c3cc(OCCCCNC(=O)c4cc5ccccc5[nH]4)ccc3OC[C@H]21 [SLC01-25, N-(4-(((4aR,10bR)-4-propyl-3,4,4a,10b-tetrahydro-2H,5H-chromeno[4,3-b][1,4]oxazin-9-yl)oxy)butyl)-1H-indole-2-carboxamide]	6.30	613 ± 50.6	3860	
CCCN1CCO[C@@H]2c3cc(OCCCCNC(=O)c4cc5ccccc5o4)ccc3OC[C@H]21 [SLC01-26, N-(4-(((4aR,10bR)-4-propyl-3,4,4a,10b-tetrahydro-2H,5H-chromeno[4,3-b][1,4]oxazin-9-yl)oxy)butyl)benzofuran-2-carboxamide]	1.57	6010	9450	
CCCN1CCO[C@@H]2c3cc(OCCCCNC(=O)c4nc5ccccc5s4)ccc3OC[C@H]21 [SLC01-35, N-(4-(((4aR,10bR)-4-propyl-3,4,4a,10b-tetrahydro-2H,5H-chromeno[4,3-b][1,4]oxazin-9-yl)oxy)butyl)benzo[d]thiazole-2-carboxamide]	4.14	1330	5510	
O=C1CCc2ccc(OCCCCN3CCO[C@@H]4c5cc(O)ccc5OC[C@H]43)cc2N1 [SLC02-11, 7-(4-((4aR,10bR)-9-hydroxy-2,3,4a,10b-tetrahydro-4H,5H-chromeno[4,3-b][1,4]oxazin-4-yl)butoxy)-3,4-dihydroquinolin-2(1H)-one]	0.554	11300	6260	
C[C@H]1CO[C@@H](c2ccc(N)nc2)CN1CC1CC1CNC(=O)c1cc2ccccc2[nH]1 (stereo partly drawn) [cis-FOB01-59A, cis-N-((2-(((2S,5S)-2-(6-aminopyridin-3-yl)-5-methylmorpholino)methyl)cyclopropyl)methyl)-1H-indole-2-carboxamide]	0.498	2150	1070	
C[C@H]1CO[C@@H](c2ccc(N)nc2)CN1CC1CC1CNC(=O)c1cc2ccccc2[nH]1 (stereo partly drawn) [cis-FOB01-59B, cis-N-((2-(((2S,5S)-2-(6-aminopyridin-3-yl)-5-methylmorpholino)methyl)cyclopropyl)methyl)-1H-indole-2-carboxamide]	0.435	276 ± 30	120 ± 16.6	
C[C@H]1CO[C@H](c2ccc(N)nc2)CN1CC1CC1CNC(=O)c1cc2ccccc2[nH]1 (stereo partly drawn) [cis-FOB01-60A, cis-N-((2-(((2R,5S)-2-(6-aminopyridin-3-yl)-5-methylmorpholino)methyl)cyclopropyl)methyl)-1H-indole-2-carboxamide]	0.431	26200	11300	
C[C@H]1CO[C@H](c2ccc(N)nc2)CN1CC1CC1CNC(=O)c1cc2ccccc2[nH]1 (stereo partly drawn) [cis-FOB01-60B, cis-N-((2-(((2R,5S)-2-(6-aminopyridin-3-yl)-5-methylmorpholino)methyl)cyclopropyl)methyl)-1H-indole-2-carboxamide]	0.235	32900	7730	
C[C@H]1CO[C@@H](c2ccc(N)nc2)CN1CC1CC1CNC(=O)c1cc2ccccc2[nH]1 (stereo partly drawn) [trans-AB05-27A, trans-N-((2-(((2S,5S)-2-(6-aminopyridin-3-yl)-5-methylmorpholino)methyl)cyclopropyl)methyl)-1H-indole-2-carboxamide]	0.182	1190	216 ± 32.6	Ki ([2]; HEK293 cells stably expressing hD2R, listed as AB05-27A, read-out: D2R Ki ± SEM): 216 nM
C[C@H]1CO[C@@H](c2ccc(N)nc2)CN1CC1CC1CNC(=O)c1cc2ccccc2[nH]1 (stereo partly drawn) [trans-AB05-27B, trans-N-((2-(((2S,5S)-2-(6-aminopyridin-3-yl)-5-methylmorpholino)methyl)cyclopropyl)methyl)-1H-indole-2-carboxamide]	1.75	404 ± 34	707 ± 19.8	Ki ([1]; HEK293 cells stably expressing hD3R, listed as AB05-27B, read-out: D3R Ki ± SEM): 404 nM
